Measurements: patent US7494821B2, “Fluorescein based sensors for tracking nitric oxide in live cells” (Massachusetts Institute of Technology, priority 2005, dated 2009)

Legend:
[1] = Fluorescence response to NO in buffered aqueous solution; conditions: for fluorescence on reaction with NO-releasing agent SNAP: pH 7.0 (50 mM PIPES, 100 mM KCl), 30 min time interval
Experimental: FIG. 5 depicts the fluorescence response of Cu(FL5) to NO. Fluorescence emission spectra (λex=503 nm) of a deoxygenated 1 μM solution of Cu(FL5) in buffered solution (50 mM PIPES, pH 7.0, 100 mM KCl) before (dashed line), immediately, 1, 2 and 5 min after (solid lines) admission of 1300 equiv of NO (g) at 37° C.
The fluorescence of a 1 μM FL5 solution was diminished by 18±3% upon introduction of an equimolar quantity of CuCl2 at 37° C. Addition of excess NO to a buffered aqueous Cu(FL5) solution led to an immediate 11.2±1.5-fold increase in fluorescence (FIG. 5). […] The lower detection limit for NO is 5 nM.
A commercially available NO probe, DAF-2 (o-diaminofluorescein), was used for comparison with Cu(FL5). The fluorescence of DAF-2 is unchanged in the presence of NO and the absence of O2 over a period of 1 h.
As depicted in FIG. 4, NO detection by Cu(FL5) occurs, formally, by nitric oxide-induced reduction of Cu(II) to Cu(I), forming NO^+, which nitrosates the ligand with concomitant dissociation from copper and fluorescence turn-on. The mechanism of turn-on emission of Cu(FL5) by NO was investigated by EPR, UV-vis, NMR and fluorescence spectroscopy and by liquid chromatography-mass spectrometry (LC-MS, low resolution MS).

[2] = tested on: SK-N-SH human neuroblastoma cells; test: Detection of NO produced by cNOS in SK-N-SH cells (fluorescence imaging); assay type: cell-based
Experimental: FIG. 7 illustrates Cu(FL5) detection of NO produced by cNOS. (a) NO detection in SK-N-SH cells by Cu(FL5). Left to right: 25 min incubation of Cu(FL5) (1 μM) and 5, 10, 15, 25 min after co-treatment of Cu(FL5) (1 μM) and 17β-estradiol (100 nM). Images were taken with a Nikon Eclipse TS100 microscope after removing the DMEM media and washing the cells with PBS. Top: fluorescence images; bottom: phase contrast images. (b) Fluorescence intensity (F(t)/FCu(FL5)) from a was plotted against incubation time. (c) NO production with or without of L-NNA. Right: NO detection in cells after 10 min co-incubation of Cu(FL5) (1 μM) and 17β-estradiol (100 nM). Left: NO detection in cells pre-treated with L-NNA for 1 h before addition of Cu(FL5) and 17β-estradiol.
We investigated the ability of Cu(FL5) to detect NO produced in SK-N-SH human neuroblastoma cells under physiological conditions, since constitutive NO synthase (“cNOS”) in this cell line can be activated by estrogen to produce NO. Estrogen administration leads to an increase in the cytosolic Ca(II) concentration that alters the structure of calmodulin, which in turn activates cNOS. The NO-dependent fluorescence response, monitored after simultaneous administration of 17β-estradiol (100 nM) and Cu(FL5) (1 μM) to the cells, was completed within 5 min with a 4.0±0.6-fold increase in fluorescence (FIGS. 5a and b). […] As another control, HeLa cells were co-treated with 17β-estradiol (100 nM) and Cu(FL5) (1 μM).
Raw 264.7, SK-N-SH, and HeLa cells were purchased from the American Type Culture Collection (ATCC). All three cell lines were maintained in Dulbecco's modified Eagles' media (DMEM) (GibcoBRL) containing 10% (v/v) heat-inactivated fetal bovine serum (FBS) (HyClone), 1 mM sodium pyruvate (Sigma), 100 units/ml penicillin, 100 μg/ml streptomycin (Invitrogen), and 0.1 mM nonessential amino acid solution for minimal essential medium (Sigma). All cells were grown at 37° C. in a humidified atmosphere of 10% CO2. A nitrite assay was performed with Griess reagents (Promega) on Raw 264.7 cells grown in DMEM free of phenol red. Calcium sensor fluo-4 AM was purchased from Invitrogen. MTT [3-(4,5-dimethylthiazol-2-yl)-2,5-diphenyltetrazolium bromide] (Sigma-Aldrich) assay was described in Supplementary information. The expression of iNOS in Raw 264.7 cells was analyzed by Western blot on the extracts of cells stimulated by LPS and INF-γ. The protein was silenced by short hairpin RNA-induced RNAi and the resulting cell lines were used in fluorescence imaging by Cu(FL5).

[3] = tested on: Raw 264.7 murine macrophage cells; test: Detection of NO produced by iNOS in Raw 264.7 cells (fluorescence imaging); assay type: cell-based
Experimental: FIG. 8 illustrates Cu(FL5) detection of NO produced by iNOS. (a) NO detection in Raw 264.7 macrophage cells by Cu(FL5). Left to right: Cu(FL5) (1 μM) incubation with cells for 12 h, and 2, 4, 6, 8 h after addition of Cu(FL5) into cells that were pre-stimulated for 4 h with LPS (500 ng mL^−1) and IFN-γ (250 U mL^−1). The times depicted in the figure are the total incubation times with Cu(FL5). Images were taken immediately after removing the media and washing the cells three times with PBS. The instrument used was a Zeiss Axiovert 200M inverted epifluorescence microscope with differential interference contrast (DIC). Top: fluorescence images; bottom: DIC images. (b) Silencing of iNOS by RNAi in Raw 264.7 cells. A plasmid expressing shRNA was constructed to target the mRNA of iNOS. It was transfected into cells. The plasmid vector without insert for RNAi was transfected to establish a control cell line. The expression of iNOS in these two cell lines after stimulated by LPS and IFN-γ for 12 h was investigated by Western blot on the whole cell extracts with antibodies against the protein and actin, which served as loading control (lane 1: cells with control plasmid vector, lane 2: cells with plasmid expressing shRNA for iNOS). (c) NO detection in Raw 264.7 cells with iNOS silenced by RNAi. The two lines in (b) were treated with LPS and IFN-γ for 4 h before 8 h of incubation with Cu(FL5).
In macrophages, nitric oxide is produced by inducible NO synthases (“iNOS”). […] This method colorimetrically determines the concentration of NO2^− resulting from NO oxidation in the extracellular space. Fluorescence detection of NO production by stimulated macrophage cells was also achieved by incubation of the extracellular fluid with DAN and DAFs. These dyes improved the sensitivity of Griess assay, but were unable to reveal NO production inside cells with spatial and temporal fidelity. The present Cu(FL5) construct, however, readily detects NO produced in activated Raw 264.7 cells by fluorescence turn-on. Macrophage cells were incubated with LPS (500 ng/mL) and IFN-γ (250 U/mL) for 4 h, after which 1 μM Cu(FL5) was applied. The fluorescence response was monitored at 2 h intervals by microscopy (FIG. 6a).
To investigate further the origin of fluorescence detected by Cu(FL5), iNOS was silenced in Raw 264.7 cells by short hairpin RNA (shRNA)-induced RNA interference (RNAi) (FIG. 6b).
Raw 264.7, SK-N-SH, and HeLa cells were purchased from the American Type Culture Collection (ATCC). […] The expression of iNOS in Raw 264.7 cells was analyzed by Western blot on the extracts of cells stimulated by LPS and INF-γ. The protein was silenced by short hairpin RNA-induced RNAi and the resulting cell lines were used in fluorescence imaging by Cu(FL5).

Structure (SMILES)	fluorescence response to NO under both anaerobic and aerobic conditions [1]	lower detection limit for NO [1] [nM]	increase in fluorescence upon addition of excess NO ([1]; buffered aqueous solution, immediate) [fold]	increase in fluorescence upon addition of NO in the presence of excess EDTA ([1]; excess EDTA chelating Cu(II)) [fold]	fluorescence on reaction with NO-releasing agent SNAP [1]	fluorescence on reaction with NO-releasing agent SNAP ([1]; listed as Cu(II)(FL5))	increase in fluorescence in SK-N-SH cells ([2]; 17β-estradiol (100 nM) and Cu(FL5) (1 μM) administered simultaneously) [fold]	time to complete fluorescence response in SK-N-SH cells ([2]; 17β-estradiol (100 nM), probe 1 μM) [min]	fluorescence response in presence of cNOS inhibitor L-NNA ([2]; 17β-estradiol-stimulated SK-N-SH cells)	fluorescence enhancement in living cells, both cNOS and iNOS ([2]; both cell lines (Raw 264.7 and SK-N-SH)) [fold]	brightness of NO visualization compared with DAF-2 DA ([2]; estradiol-stimulated neuroblastoma cells)	average fluorescence in activated Raw 264.7 cells ([3]; LPS (500 ng/mL) and IFN-γ (250 U/mL) 4 h, then 1 μM Cu(FL5), monitored at 2 h intervals)	fluorescence response in Raw 264.7 cells with iNOS silenced by shRNA vs plasmid vector only ([3]; stimulated by LPS and IFN-γ)	fluorescence response in stimulated Raw 264.7 cells in presence of iNOS inhibitor L-NMA ([3]; vs absence of L-NMA)	increase in fluorescence when treated with excess NO over 30 min ([1]; control: no Cu(II), over 30 min) [fold]	fluorescence in stimulated SK-N-SH cells in the absence of Cu(II) ion ([2]; over a period of 25 min)	turn-on fluorescence emission in stimulated Raw 264.7 cells without Cu(II) ion ([3]; LPS and IFN-γ, 12 h incubation period)
Cc1ccc2cccc(NCc3c([O][Cu][Cl])ccc4c(-c5ccccc5C(=O)O)c5cc(Cl)c(=O)cc-5oc34)c2n1 [Cu(FL5)]	immediate fluorescence response	5	11.2±1.5	1.3±0.2	enhanced	turn-on fluorescence	4.0±0.6	≤ 5	notably weaker fluorescence response	> 4	brighter fluorescence than DAF-2 DA	slowly increased over 12 h	much weaker fluorescence response	notably weaker fluorescence response			
Cc1ccc2cccc(NCc3c(O)ccc4c(-c5ccccc5C(=O)O)c5cc(Cl)c(=O)cc-5oc34)c2n1 [FL5, 2-{2-chloro-6-hydroxy-5-[(2-methyl-quinolin-8-ylamino)-methyl]-3-oxo-3H-xanthen-9-yl}-benzoic acid]															1.5±0.2	no fluorescence increase	not observed
